Reference: ChEMBL document CHEMBL3526091, “Pharmacokinetics, metabolism, and excretion of the glycogen synthase kinase-3 inhibitor LY2090314 in rats, dogs, and humans: a case study in rapid clearance by extensive metabolism with low circulating metabolite exposure” (Drug Metab Dispos, 2013)

What was measured:
[1] = Clearance in cancer patient at 120 mg for 60 mins treated 1/8 cycle/day; type: ADME, organism-based; design: dosed compound name LY2090314; settings: human, in vivo
[2] = Volume of distribution at steady state in beagle dog at 5 mg/kg, iv administered for 30 mins; type: ADME, organism-based, Canis lupus familiaris; design: dose 5 mg/kg, dosed compound name [14C]LY2090314, route intravenous; settings: in vivo, read-out: Vdss
[3] = tested on: Canis familiaris; assay: Cmax in beagle dog assessed as total radioactivity at 5 mg/kg, iv administered for 30 mins; type: ADME, organism-based, Canis lupus familiaris; design: dose 5 mg/kg, dosed compound name [14C]LY2090314, route intravenous; settings: in vivo, 0.5 h
[4] = tested on: Rattus norvegicus; assay: Tmax in Sprague-Dawley rat assessed as total radioactivity at 5 mg/kg, iv administered for 30 mins; type: ADME, organism-based; design: dose 5 mg/kg, dosed compound name [14C]LY2090314, route intravenous; settings: in vivo, 0.5 h
[5] = tested on: Canis familiaris; assay: AUC (0 to infinity) in beagle dog assessed as total radioactivity at 5 mg/kg, iv administered for 30 mins; type: ADME, organism-based, Canis lupus familiaris, Plasma; design: dose 5 mg/kg, dosed compound name [14C]LY2090314, route intravenous, time infinity; settings: in vivo, 0.5 h
[6] = Drug recovery in bile duct-cannulated Sprague-Dawley rat bile at 5 mg/kg, iv administered for 30 mins during 0 to 12 hrs time interval by radio analysis; type: ADME, organism-based; design: dose 5 mg/kg, dosed compound name [14C]LY2090314, route intravenous; settings: in vivo
[7] = Clearance in cancer patient at 80 mg for 60 mins treated 1/1 cycle/day; type: ADME, organism-based; design: dosed compound name LY2090314; settings: human, in vivo
[8] = AUC (0 to infinity) in cancer patient at 20 mg for 60 mins treated 1/1 cycle/day; type: ADME, organism-based; design: dose 20 mg, time infinity, dosed compound name LY2090314; settings: human, plasma
[9] = AUC (0 to infinity) in cancer patient at 10 mg for 60 mins treated 1/1 cycle/day; type: ADME, organism-based; design: dose 10 mg, time infinity, dosed compound name LY2090314; settings: human, plasma
[10] = tested on: Plasma; assay: Drug metabolism in Mrp2 knockout Sprague-Dawley rat plasma at 5 mg/kg, iv administered for 30 mins; type: ADME, organism-based; design: dose 5 mg/kg, dosed compound name LY2090314, route intravenous; settings: in vivo, 0.5 h
[11] = Tmax in cancer patient at 40 mg for 60 mins treated 1/8 cycle/day; type: ADME, organism-based; design: dosed compound name LY2090314; settings: human, in vivo
[12] = tested on: Rattus norvegicus; assay: Drug recovery in Sprague-Dawley rat cage at 5 mg/kg, iv administered for 30 mins during 0 to 24 hrs time interval by radio analysis; type: ADME, organism-based; design: dose 5 mg/kg, dosed compound name [14C]LY2090314, route intravenous; settings: in vivo
[13] = Clearance in beagle dog at 5 mg/kg, iv administered for 30 mins; type: ADME, organism-based, Canis lupus familiaris; design: dose 5 mg/kg, dosed compound name [14C]LY2090314, route intravenous; settings: in vivo
[14] = Cmax in cancer patient at 120 mg for 60 mins treated 1/8 cycle/day; type: ADME, organism-based; design: dose 120 mg, dosed compound name LY2090314; settings: human, in vivo
[15] = Half life in cancer patient at 60 mg for 60 mins treated 1/8 cycle/day; type: ADME, organism-based; design: dosed compound name LY2090314; settings: human, in vivo
[16] = tested on: Rattus norvegicus; assay: Total drug recovery in Sprague-Dawley rat at 5 mg/kg, iv administered for 30 mins during 0 to 168 hrs time interval by radio analysis; type: ADME, organism-based; design: dose 5 mg/kg, dosed compound name [14C]LY2090314, route intravenous; settings: in vivo
[17] = AUC (0 to infinity) in cancer patient at 20 mg for 60 mins treated 2/1 cycle/day; type: ADME, organism-based; design: dose 20 mg, time infinity, dosed compound name LY2090314; settings: human, plasma
[18] = Elimination half life in beagle dog at 5 mg/kg, iv administered for 30 mins; type: ADME, organism-based, Canis lupus familiaris; design: dose 5 mg/kg, dosed compound name [14C]LY2090314, route intravenous; settings: in vivo, read-out: beta t1/2 (converted)
[19] = Drug recovery in Sprague-Dawley rat carcass at 5 mg/kg, iv administered for 30 mins during 0 to 168 hrs time interval by radio analysis; type: ADME, organism-based; design: dose 5 mg/kg, dosed compound name [14C]LY2090314, route intravenous; settings: in vivo
[20] = tested on: Rattus norvegicus; assay: Drug recovery in Sprague-Dawley rat cage at 5 mg/kg, iv administered for 30 mins during 0 to 168 hrs time interval by radio analysis; type: ADME, organism-based; design: dose 5 mg/kg, dosed compound name [14C]LY2090314, route intravenous; settings: in vivo
[21] = Cmax in cancer patient at 20 mg for 60 mins treated 2/1 cycle/day; type: ADME, organism-based; design: dose 20 mg, dosed compound name LY2090314; settings: human, in vivo
[22] = Volume of distribution at steady state in cancer patient at 20 mg for 60 mins treated 2/1 cycle/day; type: ADME, organism-based; design: dosed compound name LY2090314; settings: human, in vivo, read-out: Vdss
[23] = Volume of distribution at steady state in cancer patient at 60 mg for 60 mins treated 1/1 cycle/day; type: ADME, organism-based; design: dosed compound name LY2090314; settings: human, in vivo, read-out: Vdss
[24] = Tmax in cancer patient at 120 mg for 60 mins treated 1/1 cycle/day; type: ADME, organism-based; design: dosed compound name LY2090314; settings: human, in vivo
[25] = Cmax in beagle dog at 5 mg/kg, iv administered for 30 mins; type: ADME, organism-based, Canis lupus familiaris; design: dose 5 mg/kg, dosed compound name [14C]LY2090314, route intravenous; settings: in vivo
[26] = Tmax in cancer patient at 20 mg for 60 mins treated 1/1 cycle/day; type: ADME, organism-based; design: dosed compound name LY2090314; settings: human, in vivo
[27] = AUC (0 to infinity) in cancer patient at 120 mg for 60 mins treated 1/1 cycle/day; type: ADME, organism-based; design: dose 120 mg, time infinity, dosed compound name LY2090314; settings: human, plasma

clearance [1]: 638 mL/min | Vd [2]: 0.915 L/kg | Cmax [3]: 7240 ng/mL | Tmax [4]: 30 min | AUC [5]: 15067 ng·h/mL | Radiolabel recovery [6]: 85.2% | clearance [7]: 747 mL/min | AUC(0-inf) [8]: 427 ng·h/mL | AUC(0-inf) [9]: 216 ng·h/mL | Drug metabolism [10]: metabolite_not_detected | Tmax [11]: 60 min | Radiolabel recovery [12]: 0.07% | clearance [13]: 27.9 mL/min/kg | Cmax [14]: 768 ng/mL | half-life [15]: 201 min | Radiolabel recovery [16]: 97.7% | AUC(0-inf) [17]: 404 ng·h/mL | half-life [18]: 39.7 min | Radiolabel recovery [19]: 0.07% | Radiolabel recovery [20]: 0.14% | Cmax [21]: 271 ng/mL | Vd [22]: 71.5 L | Vd [23]: 76.8 L | Tmax [24]: 58.8 min | Cmax [25]: 5090 ng/mL | Tmax [26]: 58.8 min | AUC(0-inf) [27]: 3310 ng·h/mL
Structure (SMILES): O=C1NC(=O)C(c2cnc3ccccn23)=C1c1cn2c3c(cc(F)cc13)CN(C(=O)N1CCCCC1)CC2 [LY-2090314]
